No end group written: not given here.
How the values were obtained:
[1] = Body weight during i.c.v. infusion; format: in vivo, mouse; conditions: i.c.v. infusion for 28 days
Experimental: FIGURE 4 Effect of i.c.v. infusion of GPPGPAG on object recognition memory deficits in 5XFAD mice (A) GPPGPAG or vehicle solution (artificial cerebrospinal fluid; ACSF) was continuously administered to the lateral ventricle for 28 days in mice (male and female, 24–27 weeks old). The dose of GPPGPAG was set as 10 nM in CSF. An object recognition test was carried out with a 3 h interval time. The preferential indices of the training and test sessions are shown. *p < 0.05 vs. vehicle-treated 5XFAD mice, repeated measures two-way ANOVA with post hoc Bonferroni’s test. mean ± standard error. Wild-type (male, n = 5), vehicle-treated 5XFAD mice (male, n = 2; female, n = 2), GPPGPAG-infused 5XFAD mice (male, n = 2; female, n = 3). (B) Locomotion was evaluated by open field test. Distance moved and duration with immobility were shown. mean ± standard error (C) Changed values of body weight of mice during whole experimental period are shown.
P re fe re n tia l in d e x (% ) […]
Effect of i.c.v. infusion of GPPGPAG on object recognition memory deficits in 5XFAD mice
(A) GPPGPAG or vehicle solution (artificial cerebrospinal fluid; ACSF) was continuously administered to the lateral ventricle for 28 days in mice (females, 5 - 7 months old). The dose of GPPGPAG was set as 10 nM in ACSF. An object recognition test was carried out with a 24 h interval time. […] (B) Locomotion was evaluated by open field test. […]

[2] = Stability in mouse plasma; format: in vitro ADME; conditions: 5 μg/ml, 37°C, 0, 10, 60, 180 min, LC-MS, n = 1
Experimental: For intraventricular administration, GPPGPAG was dissolved in artificial cerebrospinal fluid (ACSF; 130 mM NaCl, 24 mM NaHCO3, 3.5 mM KCl, 1.3 mM Na2HPO4, 2 mM CaCl2, 2 mM MgCl2 6H2O, and 10 mM glucose at pH 7.4) for use. GPPGPAG or ACSF was continuously injected for 28 days into the left ventricle (bregma: −0.2 mm, lateral: 1.0 mm, depth: −3.0 mm) using Alzet Osmotic Pump (1004, DURECT Corporation, CA, United States) and ALZET Brain Infusion Kit 3 (DURECT Corporation). Based on the amount of CSF produced which was 18 μL/h and the pump flow rate of 0.11 μL/h, the peptide in the pump was estimated to be diluted 164 times in the CSF to reach a final concentration 10 nM which was the effective dose in the cultured neuron experiments. Therefore 1.64 µM GPPGPAG was loaded into the pump. Stability of GPPGPAG in saline, mouse plasma and mouse cerebral cortex was confirmed by LC-MS quantification. GPPGPAG was mixed with saline or plasma at 5 μg/ml concentration. Otherwise, GPPGPAG was mixed with cortical lysate at 6.5 μg/g of cortex. After incubation at 37°C for 0, 10, 60, and 180 min, samples were dried up and served to LC-MS. Areas of MS peaks of GPPGPAG were quantified. […]
Stability of GPPGPAG in biological fluids.
(A) GPPGPAG was mixed with saline at 5 μg/ml concentration. (B) GPPGPAG was mixed with mouse plasma at 5 μg/ml concentration. […]

In the case of GPPGPAG [GPPGPAG], the body weight ([1]; 5XFAD mice, 10 nM in CSF) is reported as “not significantly changed”, the body weight ([1]; female 5XFAD mice, 10 nM, separately performed experiment) is reported as “no significant difference” and the “stability, amount remaining (MS peak area)” value [2] is reported as “gradually reduced after 60-min incubation”.

From paper PMC8160438, “A Novel Heptapeptide, GPPGPAG Transfers to the Brain, and Ameliorates Memory Dysfunction and Dendritic Atrophy in Alzheimer’s Disease Model Mice” (Frontiers in Pharmacology, 2021)
